# Test results taken from PubChem BioAssay (NCI).
#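 How tested: cells in 96-well plates exposed to compound for 48 hours at five concentrations. At the GI50, growth is halved. TGI marks complete inhibition of growth.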
# Key:
# Test in all cases: DTP human tumour cell line panel, 48 h
# SR leukemia = tested on: SR leukemia
# SN12C renal = tested on: SN12C renal
# SK-MEL-5 melanoma = tested on: SK-MEL-5 melanoma
# UACC-62 melanoma = tested on: UACC-62 melanoma
# HOP-92 NSCLC = tested on: HOP-92 NSCLC
# DU-145 prostate = tested on: DU-145 prostate
# MDA-MB-231 breast = tested on: MDA-MB-231 breast
# NCI-H226 lung = tested on: NCI-H226 lung
# HOP-62 NSCLC = tested on: HOP-62 NSCLC
# T-47D breast = tested on: T-47D breast
# SF-295 CNS = tested on: SF-295 CNS
# MCF7 breast = tested on: MCF7 breast
# K-562 leukemia = tested on: K-562 leukemia
# SF-268 CNS = tested on: SF-268 CNS
# SNB-19 CNS = tested on: SNB-19 CNS
# SW-620 colon = tested on: SW-620 colon
# SK-MEL-28 melanoma = tested on: SK-MEL-28 melanoma
# RPMI-8226 leukemia = tested on: RPMI-8226 leukemia
# COLO 205 colon = tested on: COLO 205 colon
# 786-0 renal = tested on: 786-0 renal
# A549 NSCLC = tested on: A549 NSCLC
# NCI-H522 lung = tested on: NCI-H522 lung
# NCI/ADR-RES ovarian = tested on: NCI/ADR-RES ovarian
# OVCAR-3 ovarian = tested on: OVCAR-3 ovarian
# OVCAR-5 ovarian = tested on: OVCAR-5 ovarian
# OVCAR-8 ovarian = tested on: OVCAR-8 ovarian
# HL-60(TB) leukemia = tested on: HL-60(TB) leukemia
# MALME-3M melanoma = tested on: MALME-3M melanoma
# HCC-2998 colon = tested on: HCC-2998 colon
# BT-549 breast = tested on: BT-549 breast
# IGROV1 ovarian = tested on: IGROV1 ovarian
# M14 melanoma = tested on: M14 melanoma
# NCI-H23 lung = tested on: NCI-H23 lung
# U251 CNS = tested on: U251 CNS
# HCT-15 colon = tested on: HCT-15 colon
# PC-3 prostate = tested on: PC-3 prostate
# UO-31 renal = tested on: UO-31 renal
# HS 578T breast = tested on: HS 578T breast
# MDA-MB-435 = tested on: MDA-MB-435
# LOX IMVI melanoma = tested on: LOX IMVI melanoma
# CCRF-CEM leukemia = tested on: CCRF-CEM leukemia
# CAKI-1 renal = tested on: CAKI-1 renal
# A498 renal = tested on: A498 renal
# SF-539 CNS = tested on: SF-539 CNS
# UACC-257 melanoma = tested on: UACC-257 melanoma
# HCT-116 colon = tested on: HCT-116 colon
# ACHN renal = tested on: ACHN renal
# SK-MEL-2 melanoma = tested on: SK-MEL-2 melanoma
# OVCAR-4 ovarian = tested on: OVCAR-4 ovarian
# SK-OV-3 ovarian = tested on: SK-OV-3 ovarian
# EKVX NSCLC = tested on: EKVX NSCLC
# MOLT-4 leukemia = tested on: MOLT-4 leukemia
# SNB-75 CNS = tested on: SNB-75 CNS
# MDA-MB-468 breast = tested on: MDA-MB-468 breast
# TK-10 renal = tested on: TK-10 renal
# NCI-H460 lung = tested on: NCI-H460 lung
# HT29 colon = tested on: HT29 colon
# KM12 colon = tested on: KM12 colon
# RXF 393 renal = tested on: RXF 393 renal
structure (smiles),measurement,setting,value
CCN1C(=O)N(CC)C2NNC(Sc3c(C(=O)O)c4ccccc4n(CCC(C)C)c3=O)=NC21 (stereo not drawn),GI50,SR leukemia,22 µM
same,TGI,SR leukemia,> 100 µM
same,GI50,SN12C renal,4.09 µM
same,TGI,SN12C renal,18.2 µM
same,GI50,SK-MEL-5 melanoma,4.37 µM
same,TGI,SK-MEL-5 melanoma,16.4 µM
same,GI50,UACC-62 melanoma,4.11 µM
same,TGI,UACC-62 melanoma,19.8 µM
same,GI50,HOP-92 NSCLC,16.5 µM
same,TGI,HOP-92 NSCLC,47.4 µM
same,GI50,DU-145 prostate,5.64 µM
same,TGI,DU-145 prostate,65.7 µM
same,GI50,MDA-MB-231 breast,3.69 µM
same,TGI,MDA-MB-231 breast,15.7 µM
same,GI50,NCI-H226 lung,3.87 µM
same,TGI,NCI-H226 lung,21 µM
same,GI50,HOP-62 NSCLC,6.68 µM
same,TGI,HOP-62 NSCLC,43 µM
same,GI50,T-47D breast,20.5 µM
same,TGI,T-47D breast,> 100 µM
same,GI50,SF-295 CNS,3.3 µM
same,TGI,SF-295 CNS,13.2 µM
same,GI50,MCF7 breast,878 nM
same,TGI,MCF7 breast,15.1 µM
same,GI50,K-562 leukemia,3.69 µM
same,TGI,K-562 leukemia,> 100 µM
same,GI50,SF-268 CNS,10.4 µM
same,TGI,SF-268 CNS,> 100 µM
same,GI50,SNB-19 CNS,4.56 µM
same,TGI,SNB-19 CNS,25.1 µM
same,GI50,SW-620 colon,6.5 µM
same,TGI,SW-620 colon,31 µM
same,GI50,SK-MEL-28 melanoma,9.69 µM
same,TGI,SK-MEL-28 melanoma,31.4 µM
same,GI50,RPMI-8226 leukemia,4.61 µM
same,TGI,RPMI-8226 leukemia,> 100 µM
same,GI50,COLO 205 colon,3.65 µM
same,TGI,COLO 205 colon,11.6 µM
same,GI50,786-0 renal,14.5 µM
same,TGI,786-0 renal,62.8 µM
same,GI50,A549 NSCLC,6.07 µM
same,TGI,A549 NSCLC,24.2 µM
same,GI50,NCI-H522 lung,2520 nM
same,TGI,NCI-H522 lung,8.42 µM
same,GI50,NCI/ADR-RES ovarian,2250 nM
same,TGI,NCI/ADR-RES ovarian,5.8 µM
same,GI50,OVCAR-3 ovarian,5 µM
same,TGI,OVCAR-3 ovarian,21.3 µM
same,GI50,OVCAR-5 ovarian,3.06 µM
same,TGI,OVCAR-5 ovarian,17.5 µM
same,GI50,OVCAR-8 ovarian,5.54 µM
same,TGI,OVCAR-8 ovarian,51.7 µM
same,GI50,HL-60(TB) leukemia,3.12 µM
same,TGI,HL-60(TB) leukemia,34.1 µM
same,GI50,MALME-3M melanoma,11.2 µM
same,TGI,MALME-3M melanoma,28.3 µM
same,GI50,HCC-2998 colon,2410 nM
same,TGI,HCC-2998 colon,7.91 µM
same,GI50,BT-549 breast,35.8 µM
same,TGI,BT-549 breast,91.4 µM
same,GI50,IGROV1 ovarian,3.06 µM
same,TGI,IGROV1 ovarian,18.1 µM
same,GI50,M14 melanoma,8.47 µM
same,TGI,M14 melanoma,> 100 µM
same,GI50,NCI-H23 lung,4.34 µM
same,TGI,NCI-H23 lung,16.6 µM
same,GI50,U251 CNS,4.33 µM
same,TGI,U251 CNS,36.9 µM
same,GI50,HCT-15 colon,2750 nM
same,TGI,HCT-15 colon,13.7 µM
same,GI50,PC-3 prostate,6.19 µM
same,TGI,PC-3 prostate,> 100 µM
same,GI50,UO-31 renal,4.07 µM
same,TGI,UO-31 renal,22.5 µM
same,GI50,HS 578T breast,3.37 µM
same,TGI,HS 578T breast,31 µM
same,GI50,MDA-MB-435,2130 nM
same,TGI,MDA-MB-435,5.5 µM
same,GI50,LOX IMVI melanoma,5.11 µM
same,TGI,LOX IMVI melanoma,18.5 µM
same,GI50,CCRF-CEM leukemia,4.62 µM
same,TGI,CCRF-CEM leukemia,> 100 µM
same,GI50,CAKI-1 renal,5.21 µM
same,TGI,CAKI-1 renal,19.8 µM
same,GI50,A498 renal,19.6 µM
same,TGI,A498 renal,54.3 µM
same,GI50,SF-539 CNS,2110 nM
same,TGI,SF-539 CNS,5.63 µM
same,GI50,UACC-257 melanoma,19.6 µM
same,TGI,UACC-257 melanoma,71.5 µM
same,GI50,HCT-116 colon,4.12 µM
same,TGI,HCT-116 colon,> 100 µM
same,GI50,ACHN renal,5.75 µM
same,TGI,ACHN renal,19.4 µM
same,GI50,SK-MEL-2 melanoma,9.35 µM
same,TGI,SK-MEL-2 melanoma,31.2 µM
same,GI50,OVCAR-4 ovarian,17.9 µM
same,TGI,OVCAR-4 ovarian,> 100 µM
same,GI50,SK-OV-3 ovarian,7.58 µM
same,TGI,SK-OV-3 ovarian,69.1 µM
same,GI50,EKVX NSCLC,3.5 µM
same,TGI,EKVX NSCLC,17.7 µM
same,GI50,MOLT-4 leukemia,4.79 µM
same,TGI,MOLT-4 leukemia,> 100 µM
same,GI50,SNB-75 CNS,2240 nM
same,TGI,SNB-75 CNS,9.19 µM
same,GI50,MDA-MB-468 breast,386 nM
same,TGI,MDA-MB-468 breast,3.33 µM
same,GI50,TK-10 renal,17.5 µM
same,TGI,TK-10 renal,63.8 µM
same,GI50,NCI-H460 lung,3.43 µM
same,TGI,NCI-H460 lung,13.3 µM
same,GI50,HT29 colon,3.33 µM
same,TGI,HT29 colon,13.3 µM
same,GI50,KM12 colon,4.12 µM
same,TGI,KM12 colon,53.5 µM
same,GI50,RXF 393 renal,2160 nM
same,TGI,RXF 393 renal,9.31 µM
